Measured values taken from BindingDB's records for doi:10.1021/acs.jmedchem.5b01559 (University of Siena, 2016).

target: Cannabinoid receptor 2 (Homo sapiens, UniProt P34972); experiment: Displacement of [3H]-CP-55940 from human recombinant CB2 receptor expressed in HEK293 cells after 90 mins by Competition binding assay
Sequence (P34972 whole entry): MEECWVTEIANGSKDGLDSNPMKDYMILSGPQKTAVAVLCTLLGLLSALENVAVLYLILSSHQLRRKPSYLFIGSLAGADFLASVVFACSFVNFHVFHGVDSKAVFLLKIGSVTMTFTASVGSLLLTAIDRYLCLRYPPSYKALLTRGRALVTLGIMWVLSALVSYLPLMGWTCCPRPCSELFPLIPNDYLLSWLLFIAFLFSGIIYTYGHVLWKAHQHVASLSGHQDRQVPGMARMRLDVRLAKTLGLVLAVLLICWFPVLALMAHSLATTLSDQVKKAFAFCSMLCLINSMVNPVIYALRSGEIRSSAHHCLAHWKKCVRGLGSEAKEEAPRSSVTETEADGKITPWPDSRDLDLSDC

Structure (SMILES)	Ki [nM]
O=C(NC12CC3CC(CC(C3)C1)C2)c1cn(CCN2CCS(=O)(=O)CC2)c2cc(F)ccc2c1=O	246
O=C(NCc1ccc(F)cc1)c1c(O)c2cc(-c3ccco3)ccc2n(CCCCO)c1=O	253
CCCCCn1c(=O)c(C(=O)NC23CC4CC(CC(C4)C2)C3)c(O)c2cc(C(C)C)c(F)cc21	66
O=C(NCC1CCCCC1)c1c(O)c2ccccc2n(CCCCO)c1=O	41
CN(C)CCn1cc(C(=O)NC23CC4CC(CC(C4)C2)C3)c(=O)c2ccc(F)cc21	60
CC(C)c1cc2c(=O)c(C(=O)NC34CC5CC(CC(C5)C3)C4)cn(CCN(C)C)c2cc1F	11
COCCOCn1cc(C(=O)NC23CC4CC(CC(C4)C2)C3)c(=O)c2ccc(F)cc21	56
COCCOCn1cc(C(=O)NC23CC4CC(CC(C4)C2)C3)c(=O)c2cc(C(C)C)ccc21	480
COc1ccc(CNC(=O)c2c(O)c3cc(-c4cccs4)ccc3n(CCCCO)c2=O)cc1	2240
CCCCCn1c(=O)c(C(=O)NC23CC4CC(CC(C4)C2)C3)c(O)c2ccc(F)cc21	0.93
CCCCCn1c(=O)c(C(=O)NC23CC4CC(CC(C4)C2)C3)c(O)c2cc(C(C)C)ccc21	0.53
CC(C)c1ccc2c(c1)c(=O)c(C(=O)NC13CC4CC(CC(C4)C1)C3)cn2CCN(C)C	146
CCCCCn1c(=O)c(C(=O)NCc2ccc(OC)cc2)c(O)c2cc(-c3cccs3)ccc21	20
CC(C)c1ccc2c(c1)c(=O)c(C(=O)NC13CC4CC(CC(C4)C1)C3)cn2CCN1CCS(=O)(=O)CC1	1930
